PMC5654968 (NPJ Systems Biology and Applications, 2017)
Read-outs that look alike come from different tables or passages of the source.

Type: in vivo, rat
Experimental: Distilled water and saline were administered as vehicle to rats in each control group. […] Plasma cytokine levels were measured by ELISA or multiplex immunoassay; common metabolites and lipid mediators were analyzed by GC-MS/MS and LC-MS/MS, respectively.
Pathway maps of lipid mediators were created by using CellDesigner 4.4 software (http://www.celldesigner.org). We evaluated the effects of the treatments on specific lipid mediators and categorized them according to COX, CYP and LOX pathways by Fisher’s exact test. The proinflammatory and anti-inflammatory indices were analyzed as described by Tam et al. with modification.[22]

[1] = PM/P (polyI:C+maoto vs polyI:C), 2h
[2] = PM/P (polyI:C+maoto vs polyI:C), 4h
[3] = first value of an incomplete line, time (2h or 4h) not assignable

Compound | log2FC of plasma level (M/C (maoto vs control), 2h) | log2FC of plasma level (M/C (maoto vs control), 4h) | log2FC of plasma level (P/C (polyI:C vs control), 2h) | log2FC of plasma level (P/C (polyI:C vs control), 4h) | log2FC of plasma level [1] | log2FC of plasma level [2] | log2FC of plasma level | log2FC of plasma level [3]
CCCCC/C=C\C[C@H](O)/C=C/C=C\C/C=C\CCCC(=O)O [12-HETE] | 1.25 | -0.38 | -0.61 | 0.37 | 1.33 | -0.36 |  | 
CCCCCC(O)/C=C/C=C/C/C=C/CCCC(=O)O (stereo not shown) [12-HHT] | 0.48 | -0.39 | 0.33 | 1.13 | -0.01 | -1.45 |  | 
CCCCC/C=C\CC(=O)/C=C/C=C\C/C=C\CCCC(=O)O [12-KETE] | 0.74 | -1.34 | -0.45 | 0.53 | 0.54 | -1.45 |  | 
CCCCCC(=O)CCC1C(=O)CC(O)C1C/C=C\CCCC(=O)O (stereo not shown) [13,14-dihydro-15-keto-PGD2] |  |  |  |  |  |  | -0.34 | 0.70
CCCCCC(=O)CC[C@H]1[C@H](O)CC(=O)[C@@H]1C/C=C\CCCC(=O)O [13,14-dihydro-15-keto-PGE2] | 0.22 | 0.13 | 1.01 | 0.22 | -0.04 | 0.42 |  | 
CCCCCC(=O)CC[C@@H]1[C@@H](C/C=C\CCCC(=O)O)[C@@H](O)C[C@H]1O [13,14-dihydro-15-keto-PGF2α] | 0.41 | -0.29 | 0.56 | -0.30 | 0.05 | 0.38 |  | 
CCCCCC(=O)CCC1C(O)CC(=O)C1CCC(=O)O (stereo not shown) [13,14-dihydro-15-keto-tetranor-PGE2] | 0.05 | -0.80 | 2.37 | 2.09 | -0.40 | -2.03 |  | 
CCCCCC(=O)CCC1C(O)CC(O)C1CCC(=O)O (stereo not drawn) [13,14-dihydro-15-keto-tetranor-PGF1α] |  |  |  |  |  |  | 0.16 | 0.18
CCCCCC(=O)CCC1C(O)CC(O)C1CCC(=O)O (stereo not drawn) [13,14-dihydro-15-keto-tetranor-PGF1β] | 0.11 | 0.40 | 0.93 | 0.27 | 0.11 | -0.01 |  | 
CC/C=C\C/C=C\C=C\C(O)C/C=C\C/C=C\C/C=C\CCC(=O)O (stereo not shown) [13-HDoHE] | 0.03 | -0.44 | 0.01 | 0.18 | -0.06 | -0.62 |  | 
CCCCCC(O)/C=C/C=C\CCCCCCCC(=O)O (stereo not shown) [13-HODE] | 0.14 | -0.46 | 0.15 | 0.36 | -0.11 | -0.80 |  | 
CC/C=C\CC(O)/C=C/C=C\CCCCCCCC(=O)O (stereo not shown) [13-HOTrE] | 0.23 | -0.43 | 0.16 | 0.11 | -0.20 | -0.60 |  | 
CCCCC[C@@H](/C=C/C=C\CCCCCCCC(=O)O)OO [13-HpODE] | 2.37 | -2.47 | 0.75 | 0.25 | -0.76 | -1.63 |  | 
CCCCCC(=O)/C=C/C=C\CCCCCCCC(=O)O [13-KODE] | 0.39 | -1.68 | -0.08 | 0.50 | -0.15 | -1.45 |  | 
CCCCCC(O)C(O)C/C=C\C/C=C\C/C=C\CCCC(=O)O (stereo not shown) [14,15-DHET] | 0.79 | 0.01 | 0.07 | 0.40 | 0.22 | -0.41 |  | 
CC/C=C\CC(O)C(O)C/C=C\C/C=C\C/C=C\CCCC(=O)O (stereo not shown) [14,15-DiHETE] | 0.41 | -0.20 | 0.14 | 0.00 | -0.13 | -0.17 |  | 
CCCCCC1OC1C/C=C\C/C=C\C/C=C\CCCC(=O)O (stereo not shown) [14,15-EET] | -0.23 | -0.59 | -0.40 | 0.01 | 0.02 | -0.47 |  | 

Compound | log2FC of plasma level (M/C (maoto vs control), 2h) | log2FC of plasma level (M/C (maoto vs control), 4h) | log2FC of plasma level (P/C (polyI:C vs control), 2h) | log2FC of plasma level (P/C (polyI:C vs control), 4h) | log2FC of plasma level [1] | log2FC of plasma level [2] | log2FC of plasma level | log2FC of plasma level [3]
CC/C=C\C/C=C\CC(O)/C=C/C=C\C/C=C\C/C=C\CCC(=O)O (stereo not shown) [14-HDoHE] | 0.82 | -0.39 | -0.32 | 0.40 | 0.58 | -0.58 |  | 
CCCCCC(O)/C=C/C=C\CCCCCCCCCC(=O)O (stereo not shown) [15-HEDE] | 0.33 | -0.76 | -0.05 | 0.71 | 0.14 | -1.18 |  | 
CC/C=C\CC(O)/C=C/C=C\C/C=C\C/C=C\CCCC(=O)O (stereo not shown) [15-HEPE] | 0.47 | -0.29 | 0.28 | 0.06 | -0.02 | -0.55 |  | 
CCCCC[C@H](O)/C=C/C=C\C/C=C\C/C=C\CCCC(=O)O [15-HETE] | -0.07 | -0.49 | -0.12 | 0.56 | -0.02 | -0.78 |  | 
CCCCCC(O)/C=C/C=C\C/C=C\CCCCCCC(=O)O (stereo not shown) [15-HETrE] | 0.77 | 0.00 | 0.20 | 1.11 | 0.25 | -0.98 |  | 
CCCCCC(=O)/C=C/C=C\CCCCCCCCCC(=O)O [15-KEDE] | 0.13 | -0.62 | -0.26 | 0.83 | 0.21 | -1.15 |  | 
CCCCCC(=O)/C=C/[C@H]1[C@H](O)CC(=O)[C@@H]1C/C=C\CCCC(=O)O [15-keto-PGE2] | -0.28 | -0.61 | -0.15 | 0.64 | -0.07 | -1.08 |  | 
CC/C=C\C=C\C(O)C/C=C\C/C=C\C/C=C\C/C=C\CCC(=O)O (stereo not shown) [16-HDoHE] | 0.10 | -0.60 | -0.12 | 0.38 | 0.16 | -0.76 |  | 
CCCCC(O)/C=C\C/C=C\C/C=C\C/C=C\CCCC(=O)O (stereo not shown) [16-HETE] | 0.13 | -0.23 | 0.13 | 0.70 | -0.02 | -0.94 |  | 
CCC(O)C(O)C/C=C\C/C=C\C/C=C\C/C=C\CCCC(=O)O (stereo not shown) [17,18-DiHETE] | 0.60 | -0.17 | 0.19 | 0.32 | -0.30 | -0.38 |  | 
CC/C=C\CC(O)/C=C/C=C\C/C=C\C/C=C\C/C=C\CCC(=O)O (stereo not shown) [17-HDoHE] | 0.30 | -0.62 | -0.12 | 0.47 | 0.18 | -0.79 |  | 
CCCC(O)C/C=C\C/C=C\C/C=C\C/C=C\CCCC(=O)O (stereo not shown) [17-HETE] | 0.20 | 0.07 | 0.59 | 0.13 | 0.42 | 0.16 |  | 
CCC(O)/C=C/C=C\C/C=C\C/C=C\C/C=C\CCCC(=O)O (stereo not shown) [18-HEPE] | 0.08 | -0.59 | 0.02 | 0.07 | -0.16 | -0.77 |  | 
CCC(O)CC/C=C\C/C=C\C/C=C\C/C=C\CCCC(=O)O (stereo not shown) [18-HETE] | 0.16 | -0.08 | 0.25 | -0.05 | -0.26 | -0.07 |  | 
CC(O)CCC/C=C\C/C=C\C/C=C\C/C=C\CCCC(=O)O (stereo not shown) [19-HETE] | 1.44 | 0.46 | 0.66 | -0.33 | 0.46 | 0.72 |  | 
CCC(O)/C=C/C=C\C/C=C\C/C=C\C/C=C\C/C=C\CCC(=O)O (stereo not shown) [20-HDoHE] | -0.10 | -0.54 | -0.13 | 0.44 | 0.06 | -0.71 |  | 
